Laboratory results as given in patent US20240400712A1, “A PLATFORM TO OBTAIN MONOCLONAL ANTIBODIES DIRECTED AGAINST PROCESSED TUMOR-SPECIFIC ANTIGENS” (MEDITERRANEA THERANOSTIC SRL, priority 2020, published 2024).

How the values were obtained:
[1] = target: T1, ADAM10 (Mus musculus, UniProt O35598); assay: Western blot of Trop-2 processing after ADAM10 inhibition or silencing in MTE 4-14/Trop-2 transfectants; assay type: cell-based, murine; details: for concentration found effective (up to): inhibition of Trop-2 cleavage in cells
T1 construct: endogenous in cells; host or cells: MTE 4-14 cells (transformed thymus cells) transfected with Trop-2
T1 sequence (O35598 215-749): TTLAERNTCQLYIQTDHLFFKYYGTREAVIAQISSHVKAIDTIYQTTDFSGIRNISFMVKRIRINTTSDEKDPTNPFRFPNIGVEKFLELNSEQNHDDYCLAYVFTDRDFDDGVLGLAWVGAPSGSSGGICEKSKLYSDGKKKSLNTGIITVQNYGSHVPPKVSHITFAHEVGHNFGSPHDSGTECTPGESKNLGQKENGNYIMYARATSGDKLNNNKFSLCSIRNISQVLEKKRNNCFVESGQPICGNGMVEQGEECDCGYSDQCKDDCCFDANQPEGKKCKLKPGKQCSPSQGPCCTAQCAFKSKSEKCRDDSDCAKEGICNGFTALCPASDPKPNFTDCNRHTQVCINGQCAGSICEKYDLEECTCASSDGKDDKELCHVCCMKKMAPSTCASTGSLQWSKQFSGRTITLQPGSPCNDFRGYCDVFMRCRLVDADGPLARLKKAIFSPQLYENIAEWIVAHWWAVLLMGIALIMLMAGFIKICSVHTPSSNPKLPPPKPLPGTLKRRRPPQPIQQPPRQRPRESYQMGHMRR
Procedure: ADAM 10 activity was inhibited in the MTE 4-14/Trop-2 transfectants by treatment with chemical inhibitors or mRNA silencing, and the effect on Trop-2 processing and on Trop-2-dependent cell growth was evaluated.
A. WB analysis following treatment with the broad-spectrum metalloprotease inhibitor GM6001 or with the specific ADAM10 inhibitor G1254023X (Ludwig, Hundhausen et al. 2005) or ADAM10 siRNA silencing, as indicated. […] T2-p: processed Trop-2; na: native form; pr processed form.
Western blotting was performed as described (El Sewedy, Fomaro et al. 1998). Tumors from experimental animals were rapidly frozen upon surgical removal and stored at −80° C. Frozen samples were quickly thawed and homogenized with a Dounce homogenizer. Cleared homogenates of tumors and cultured cell lysates were analyzed by SDS-PAGE and transferred to nitrocellulose filters. Filters were hybridized with anti-human Trop-2 (affinity-purified polyclonal rabbit antiserum) or anti-ADAM10 antibodies.
Cells were treated with ADAM10 inhibitors for 24 hours at the minimum concentration found to be effective in inhibiting Trop-2 cleavage, then assayed as indicated. The GM6001 metalloprotease family inhibitor (Calbiochem) was dissolved in DMSO and used at 6.5-13 μM for 24 hours; up to 50 μM GM6001 were found effective. The G1254023X selective ADAM10 inhibitor, dissolved in DMSO, was kindly provided by Dr. A. Ludwig. Cells received two doses (10 μM) every 24 hours for 48 hours; up to 20 μM G1254023X were found effective. Control cells received vehicle alone.
(§1) Complementary strategies were utilized for siRNA design. Briefly, Tuschl' criteria were applied, i.e. position in the mRNA, GC content, base composition and flanking sequences (Elbashir, Harborth et al. 2001). Invitrogen (maidesigner.invitrogen.com/maiexpress/) provides a proprietary algorithm that performs a statistical analysis of the target sequence, based on sequence composition, nucleotide content and thermodynamic properties, and compares candidates with validated siRNA sequences. The Whitehead Institute web site (jura.wi.mit.edu/bioc/siRNAext/) combines Tuschl' criteria with predictions of binding energies for both sense and antisense siRNAs and with BLAST filtering of cross-hybridizing sequences (Semizarov, Frost et al. 2003). […] Annealed oligos were subcloned into the pSUPER vector, kindly provided by Dr. R. Bemard (Brummelkamp, Bemards et al. 2002), under the control of the RNA polymerase Ill H1 gene promoter. siRNA expression constructs were transiently transfected MTE 4-14 transfectants, and cell growth was measured. siRNA-targeted transcript levels were quantified by real-time PCR. […]

[2] = tested on: metastatic triple-negative breast cancer (TNBC); details: cited from earlier work
[3] = tested on: MTE 4-14 cells; assay: In vitro cell growth of MTE 4-14 transfectants after siRNA-mediated inhibition; assay type: cell-based, murine
Procedure: C. In vitro growth curves of MTE 4-14 cells transfected with the empty vector, wtTrop-2 or R87A-T88A Trop-2 upon ADAM10 (upper graphs, black,), MMP9 (lower graphs, black,) or control (human CD133, gray), siRNA-mediated inhibition. Bars: SEM. The p value for the only significant difference (ANOVA analysis) is indicated. Stars indicate post-hoc Bonferroni's t test p values (*≤0.05, ***≤0.001).
Cell transfectants were seeded at 1.5-3.0×10^3 cells/well in 96-well plates (five replica wells per data point). Cell numbers were quantified by staining with crystal violet (Orsulic, Li et al. 2002).
Cell numbers were normalized against a standard reference curve of two-fold serially diluted cell samples.
as §1

In the case of `CNC(=O)[C@@H](NC(=O)[C@H](CCCc1ccccc1)[C@H](C)N(O)C=O)C(C)(C)C` [G1254023X], the “minimum concentration found to be effective in inhibiting Trop-2 cleavage” value ([1]; concentration used on cells, GM6001 for 24 hours, G1254023X two doses every 24 hours for 48 hours) is reported as 10 µM and the “concentration found effective (up to)” value [1] is reported as “up to 20 μM”.

For `CNC(=O)[C@H](Cc1c[nH]c2ccccc12)NC(=O)[C@@H](CC(=O)NO)CC(C)C` [GM6001], the “concentration found effective (up to)” value [1] was “up to 50 μM”.

For Sacituzumab govitecan-hziy, the efficacy in patients [2] is listed as “effective in patients with metastatic triple-negative breast cancer (TNBC)”.

B1: siRNAs targeting MMP9: control siRNA targeting murine MMP9 (NM_013599, nt 1780-1798), SEQ ID NO: 59-60 (nucleic acid, listed as Mus musculus)
sense: GATCCCCCCGCAGACCAAGAGGGTTTTTCAAGAGAAAACCCTCTTGGTCTGCGGTTTTTGGAAA
antisense: AGCTTTTCCAAAAACCGCAGACCAAGAGGGTTTTCTCTTGAAAAACCCTCTTGGTCTGCGGGGG
In the case of B1, the “effect on cell proliferation” value ([3]; control siRNA, MTE 4-14 transfectants) is reported as “no effect on cell proliferation”.

B2: ADAM10 siRNA: siRNA targeting murine ADAM10 (NM_007399.3, nt 292-309), SEQ ID NO: 57-58, in pSUPER vector (nucleic acid, listed as Mus musculus)
sense: GATCCCCAGACATTATGAAGGATTATTTCAAGAGAATAATCCTTCATAATGTCTTTTTTGGAAA
antisense: AGCTTTTCCAAAAAAGACATTATGAAGGATTATTCTCTTGAAATAATCCTTCATAATGTCTGGG
With B2 the “ADAM10 band in WB after siRNA treatment” value ([1]; MTE 4-14/Trop-2 transfectants) was “disappearance of the corresponding band”, the “effect on growth of R87A-T88A or empty vector transfectants” value ([3]; MTE 4-14 cells transfected with R87A-T88A Trop-2 or empty vector) was “no effect” and the “effect on Trop-2 dependent growth in wtTrop-2 transfectants” value ([3]; MTE 4-14 cells transfected with wtTrop-2, in vitro proliferation) was “overrides Trop-2 dependent growth stimulus”.
